One experiment has as its system bromodomain. Description: Bromodomain cell assays of Example 40 (at least one of them). The format is cell-based. To be noted: in at least one of the bromodomain cell assays described in Example 40. From the text:
(§1) Published bromodomain inhibitors JQ1 and iBET 151 have shown activity in variety of cancer cells such leukemia and lymphoma, multiple myeloma cells, NUT midline carcinoma and glioblastoma cells (Dawson M A et al. 2011; Delmore J E 2011; Chen Z et al. 2013; Filippakopoulos P et al. 2010; Mertz J A et al. 2011; Ott C J et al. 2012). In this study, we test compounds in different cancer cell lines. MV-4-11 and MOLM-13 are AML cell lines harboring a MLL-AF4 and MLL-AF9 translocation, respectively. MM.1S is a multiple myeloma cell line. SK-N-AS, IMR-32 and SK-N-BE(2) are neuroblastoma cell lines. IMR-32 and SK-N-BE(2) cell lines harbor MYCN amplifications. MV-4-11, MM.1S, IMR-32, SK-N-AS and SK-N-BE(2) were obtained from ATCC (IL, USA) and MOLM-13 were purchased from DSMZ (Braunschweig, German). Cells are cultured as recommended by their sources. For growth inhibition studies 3000 cells are seeded in wells of a 96-well plate in 75 μL of culture media. After several hours, growth media containing compounds of formula (I) are added to the wells. Compound at a maximal concentration of 5 mM was serially diluted 1:3 for a total of 8 point titration with DMSO as a control. A 1 μL aliquot of each dilution point is added to 249 μL growth media and 75 μL is added to each well containing cells, providing 10 μM compound at the maximum concentration point. The final concentration of DMSO in all wells is 0.2%. Cells are incubated for 72 hours, and 25 μL of CellTiter Glo Reagent (Promega Ga., USA) is added to each well. Plates are shaken for approximately 10 minutes and chemiluminescent signal is read on Tecan microplate reader. The measured luminescence correlates directly with cell number.
(§2) All data is normalized to the mean of eight DMSO high control wells on each plate. A four parameter curve fit of the following formula was then applied: Y=a+(b−a)/(1+(x/c)^d) Where ‘a’ is the minimum, ‘b’ is the maximum, ‘c’ is the pIC50 and ‘d’ is the Hill slope. […] Myc Reporter Assay
In MV-4-11 cells, BRD2, BRD3 and BRD4 bind to the promoter region of MYC and regulate its transcription (Dawson M A et al. 2011). The literature bromodomain inhibitor iBET 151 could disrupt BRD4 recruitment to the MYC promoter and subsequently downregulate c-myc transcription (Dawson M A et al. 2011). Myc protein is a transcription factor that heterodimerizes with an obligatory partner Max and regulates the transcription of genes important for cell proliferation, differentiation, and apoptosis. This Myc reporter assay is used to monitor the inhibitory effect of compound of formula (I) on Myc dependent gene expression. Effective compounds could have potential therapeutic effects in Myc-driven tumors.
The MV-4-11 Myc reporter cell line is established by infecting MV-4-11 with VSV-g pseudotyped lentivirus expressing the firefly luciferase gene under the control of a minimal (m) CMV promoter and tandem repeats of the E-box transcriptional response element (TRE) (Qiagen IL, USA) and selecting cells in […] Puromycin.
The MV-4-11 Myc reporter cell line is maintained in Iscove's Modified Dulbecco's Medium containing 10% FBS, 1% PenStep and 2.5 μg/ml Puromycin. Cells are incubated at 37° C. in a humidified atmosphere with 5% CO2. 25,000 cells are seeded in 96-well plate in 50 μL of culture media. After several hours, growth media containing 2× compounds are added to the wells. Compound at a maximal concentration of 5 mM is serially diluted 1:3 for a total of 8 point titration. A 1 μl aliquot of each dilution point is added to 249 μl growth media and 50 μl is added to each well containing cells, providing 10 μM compound at the maximum concentration point. DMSO treated cells serve as a high control and 10 μM JQ1 treated cells serve as a low control. Cells are incubated for a further 24 hours and 25 μL of CellTiter-Fluo Reagent (Promega Ga., USA) is added to each well. Plates are shaken for approximately 2 minutes and incubated at 37° C. for 0.5 hour. […]

The next experiment deals with MV-4-11. Put plainly: Oncology cell growth assay MV-4-11 (CellTiter Glo, 72 hours). The format is cell-based. To be noted: Homo sapiens, MV4-11, 72 h; MV-4-11 cell growth inhibitory activity, 3d.
Source text: as §1, §2
The following table provides data indicating the BRD4 biochemical inhibitory activity and MV-4-11 cell growth inhibitory activity for exemplary compounds as described herein.

The values below come from patent US10501460B2, “Heterocyclic compounds and uses thereof” (Plexxikon Inc., priority 2013, dated 2019).

The term IC50 denotes the concentration needed to halve the response being measured. Regarding `Cc1noc(C)c1-c1cnc2[nH]cc(Cc3cccnc3)c2c1` [P-0003, 3,5-dimethyl-4-[3-(3-pyridylmethyl)-1H-pyrrolo[2,3-b]pyridin-5-yl]isoxazole], the IC50 is less than 10 µM in the experiment on bromodomain and not above 1 µM in the experiment with MV-4-11. As to `Cc1noc(C)c1-c1cnc2[nH]c(C)c(Cc3cccnc3)c2c1` [P-0005, 3,5-dimethyl-4-[2-methyl-3-(3-pyridylmethyl)-1H-pyrrolo[2,3-b]pyridin-5-yl]isoxazole], the IC50 in the experiment with bromodomain was less than 10 µM; with MV-4-11, not above 1 µM. Turning to `Cc1noc(C)c1-c1cnc2[nH]c(-c3ccc(F)cc3)c(Cc3cccnc3)c2c1` [P-0007, 4-[2-(4-fluorophenyl)-3-(3-pyridylmethyl)-1H-pyrrolo[2,3-b]pyridin-5-yl]-3,5-dimethyl-isoxazole], the IC50 is less than 10 µM in the experiment on bromodomain and not above 1 µM in the experiment with MV-4-11. As for `Cc1noc(C)c1-c1cnc2[nH]c(C)c(C(O)c3cccnc3)c2c1` (centres unmarked) [P-0009, [5-(3,5-dimethylisoxazol-4-yl)-2-methyl-1H-pyrrolo[2,3-b]pyridin-3-yl]-(3-pyridyl)methanol], the results for the IC50 with bromodomain and in the experiment with MV-4-11 were less than 10 µM and not above 1 µM, respectively. `COc1ncc(F)cc1C(OC)c1c[nH]c2ncc(-c3c(C)noc3C)cc12` (centres unmarked) [P-0011, 4-[3-[(5-fluoro-2-methoxy-3-pyridyl)-methoxy-methyl]-1H-pyrrolo[2,3-b]pyridin-5-yl]-3,5-dimethyl-isoxazole]: the IC50 in the experiment on bromodomain is less than 10 µM; in the experiment with MV-4-11, not above 1 µM. With `Cc1noc(C)c1-c1cnc2[nH]cc(C(O)c3ccc(OCC(F)(F)F)nc3)c2c1` (centres unmarked) [P-0012, [5-(3,5-dimethylisoxazol-4-yl)-1H-pyrrolo[2,3-b]pyridin-3-yl]-[6-(2,2,2-trifluoroethoxy)-3-pyridyl]methanol], the 50% inhibitory concentration (IC50) with bromodomain is less than 10 µM; in the experiment on MV-4-11, 1 to 10 µM. Taken in the same sequence, the figures for `COC(c1ccc(C(F)(F)F)nc1)c1c[nH]c2ncc(-c3c(C)noc3C)cc12` (centres unmarked) [P-0013, 4-[3-[methoxy-[6-(trifluoromethyl)-3-pyridyl]methyl]-1H-pyrrolo[2,3-b]pyridin-5-yl]-3,5-dimethyl-isoxazole] were less than 10 µM and not above 1 µM.

Take `COC(c1c(F)cccc1Cl)c1c[nH]c2ncc(-c3c(C)noc3C)cc12` (centres unmarked) [P-0014, 4-[3-[(2-chloro-6-fluoro-phenyl)-methoxy-methyl]-1H-pyrrolo[2.3-b]pyridin-5-yl]-3,5-dimethyl-isoxazole]: the IC50 was less than 10 µM in the experiment with bromodomain and not above 1 µM in the experiment with MV-4-11.

`CCn1cc(-c2cn(S(=O)(=O)c3ccccc3)c3cc(-c4c(C)noc4C)cnc23)cn1` [P-0124, 4-[1-(benzenesulfonyl)-3-(1-ethylpyrazol-4-yl)pyrrolo[3,2-b]pyridin-6-yl]-3,5-dimethyl-isoxazole]: the IC50 in the experiment on MV-4-11 is not above 1 µM. Same read-out and setting: with `Cc1noc(C)c1-c1cnc2c(-c3cnn(C(F)F)c3)cn(S(=O)(=O)C3CCCC3)c2c1` [P-0133, 4-[1-cyclopentylsulfonyl-3-[1-(difluoromethyl)pyrazol-4-yl]pyrrolo [3,2-b]pyridin-6-yl]-3,5-dimethyl-isoxazole] the figure was not above 1 µM; with `Cc1noc(C)c1-c1cnc2c(C#CCO)cn(S(=O)(=O)c3ccccc3)c2c1` [P-0155, 3-[1-(benzenesulfonyl)-6-(3,5-dimethylisoxazol-4-yl)pyrrolo[3,2-b]pyridin-3-yl]prop-2-yn-1-ol], not above 1 µM; with `Cc1noc(C)c1-c1cnc2ccn(Cc3ccccc3)c2c1` [P-0162, 4-(1-benzylpyrrolo[3,2-b]pyridin-6-yl)-3,5-dimethyl-isoxazole], not above 1 µM. For `Cc1noc(C)c1-c1cnc2[nH]cc(P(=O)(c3ccccc3)c3ccccc3)c2c1` [P-0166, 4-(3-diphenylphosphoryl-1H-pyrrolo[2,3-b]pyridin-5-yl)-3,5-dimethyl-isoxazole], in the experiment with MV-4-11, the IC50 was not above 1 µM.

`Cc1noc(C)c1-c1cnc2c(-c3cnn(C(F)F)c3)cn(C(C)c3ccccc3)c2c1` (centres unmarked) [P-0177, 4-[3-[1-(difluoromethyl)pyrazol-4-yl]-1-(1-phenylethyl)pyrrolo[3,2-b]pyridin-6-yl]-3,5-dimethyl-isoxazole]: the IC50 in the experiment on MV-4-11 was not above 1 µM.

Molecule `Cc1noc(C)c1-c1cnc2c(c1)c(Sc1ccccc1)cn2-c1cnn(C)c1` [P-0184, 3,5-dimethyl-4-[1-(1-methylpyrazol-4-yl)-3-phenylsulfanyl-pyrrolo[2,3-b]pyridin-5-yl]isoxazole] yielded an IC50 with MV-4-11 not above 1 µM. As to `COCCn1cc(-c2cn(CC3(F)CCCCC3)c3cc(-c4c(C)noc4C)cnc23)cn1` [P-0238, 4-[1-[(1-fluorocyclohexyl)methyl]-3-[1-(2-methoxyethyl)pyrazol-4-yl]pyrrolo[3,2-b]pyridin-6-yl]-3,5-dimethyl-isoxazole], in the experiment on bromodomain, the IC50 was less than 10 µM. In the experiment with bromodomain, `Cc1noc(C)c1-c1cnc2c(-c3cn[nH]c3)cn(CC3(F)CCCCC3)c2c1` [P-0239, 4-[1-[(1-fluorocyclohexyl)methyl]-3-(1H-pyrazol-4-yl)pyrrolo[3,2-b]pyridin-6-yl]-3,5-dimethyl-isoxazole] returned an IC50 of less than 10 µM.

For `Cc1noc(C)c1-c1cnc2c(I)cn(CC3(F)CCC4(CC3)OCCO4)c2c1` [P-0240, 4-[1-[(8-fluoro-1,4-dioxaspiro[4.5]decan-8-yl)methyl]-3-iodo-pyrrolo[3,2-b]pyridin-6-yl]-3,5-dimethyl-isoxazole], the IC50 in the experiment on bromodomain was less than 10 µM. In the experiment with bromodomain, `Cc1noc(C)c1-c1cnc2c(-c3cnn(C(F)F)c3)cn(CC3(F)CCC4(CC3)OCCO4)c2c1` [P-0241, 4-[3-[1-(difluoromethyl)pyrazol-4-yl]-1-[(8-fluoro-1,4-dioxaspiro[4.5]decan-8-yl)methyl]pyrrolo[3,2-b]pyridin-6-yl]-3,5-dimethyl-isoxazole] displayed an IC50 of less than 10 µM. In the experiment with bromodomain, `Cc1noc(C)c1-c1cnc2c(-c3cnn(C(F)F)c3)cn(CC3(F)CCC(=O)CC3)c2c1` [P-0242, 4-[[3-[1-(difluoromethyl)pyrazol-4-yl]-6-(3,5-dimethylisoxazol-4-yl)pyrrolo[3,2-b]pyridin-1-yl]methyl]-4-fluoro-cyclohexanone] showed an IC50 of less than 10 µM. Same read-out and setting: under `Cc1noc(C)c1-c1cnc2c(-c3cnn(C(F)F)c3)cn(CC3(F)CCC(F)(F)CC3)c2c1` [P-0243, 4-[3-[1-(difluoromethyl)pyrazol-4-yl]-1-[(1,4,4-trifluorocyclohexyl)methyl]pyrrolo[3,2-b]pyridin-6-yl]-3,5-dimethyl-isoxazole] stands less than 10 µM. In turn, `Cc1noc(C)c1-c1cnc2c(-c3cnn(C(F)F)c3)cn(CC3(F)CC=C(F)CC3)c2c1` (centres unmarked) [P-0244, 4-[1-[(1,4-difluorocyclohex-3-en-1-yl)methyl]-3-[1-(difluoromethyl)pyrazol-4-yl]pyrrolo[3,2-b]pyridin-6-yl]-3,5-dimethyl-isoxazole] had an IC50 in the experiment on bromodomain of less than 10 µM.

For the molecule `Cc1noc(C)c1-c1cnc2c(I)c(C(F)(F)F)n(C(C)c3ccccc3)c2c1` (centres unmarked) [P-0245, 4-[3-iodo-1-(1-phenylethyl)-2-(trifluoromethyl)pyrrolo[3,2-b]pyridin-6-yl]-3,5-dimethyl-isoxazole], the IC50 with bromodomain was less than 10 µM. The same measure, in the same setting: under `Cc1noc(C)c1-c1cnc2[nH]ccc2c1` [P-0246, 3,5-dimethyl-4-(1H-pyrrolo[2,3-b]pyridin-5-yl)isoxazole] stands less than 10 µM.
